Results as given in paper PMC9120017, “Inhibition mechanism of the chloride channel TMEM16A by the pore blocker 1PBC” (Nature Communications, 2022).
Where two headings read alike, the source gives them in different places.

Biological target: T1, mouse TMEM16A mutant Y598A (Mus musculus, UniProt Q8BHY3, Y598A)
T1 construct: expressed in transfected cells; host or cells: HEK293T
T1 sequence (Q8BHY3 1-960 Y598A): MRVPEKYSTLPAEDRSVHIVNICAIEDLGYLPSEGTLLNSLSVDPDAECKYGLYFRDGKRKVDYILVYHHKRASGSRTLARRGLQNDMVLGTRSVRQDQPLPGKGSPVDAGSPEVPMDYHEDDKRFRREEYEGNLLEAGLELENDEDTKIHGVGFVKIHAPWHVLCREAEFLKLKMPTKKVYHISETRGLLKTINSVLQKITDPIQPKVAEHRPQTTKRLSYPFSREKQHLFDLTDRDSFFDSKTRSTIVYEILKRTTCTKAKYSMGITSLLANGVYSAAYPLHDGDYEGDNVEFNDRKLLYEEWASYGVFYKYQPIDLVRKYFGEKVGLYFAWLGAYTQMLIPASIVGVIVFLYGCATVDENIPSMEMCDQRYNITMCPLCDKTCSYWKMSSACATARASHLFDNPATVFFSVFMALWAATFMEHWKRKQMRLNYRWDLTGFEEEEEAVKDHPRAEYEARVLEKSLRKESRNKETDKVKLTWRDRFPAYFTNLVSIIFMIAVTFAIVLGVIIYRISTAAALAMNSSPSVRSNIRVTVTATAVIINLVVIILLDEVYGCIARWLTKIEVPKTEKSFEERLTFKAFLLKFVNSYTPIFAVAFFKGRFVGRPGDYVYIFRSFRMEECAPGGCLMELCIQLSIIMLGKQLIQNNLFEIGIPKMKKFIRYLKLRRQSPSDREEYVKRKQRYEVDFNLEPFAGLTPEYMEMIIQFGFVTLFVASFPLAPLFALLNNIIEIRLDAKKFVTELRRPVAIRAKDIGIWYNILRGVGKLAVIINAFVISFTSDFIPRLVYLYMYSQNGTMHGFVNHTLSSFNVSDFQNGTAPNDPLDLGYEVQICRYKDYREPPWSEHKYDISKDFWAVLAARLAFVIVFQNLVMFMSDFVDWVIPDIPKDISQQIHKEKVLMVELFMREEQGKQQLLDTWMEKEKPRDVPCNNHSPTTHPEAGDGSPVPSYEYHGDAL
Assay: Inside-out patch recording of 1PBC block, mutant Y598A
Type: cell-based
Conditions: for remaining activity at 3 µM: 1PBC conc 3; for remaining activity at 3 µM / remaining activity at 10 µM / remaining activity at 30 µM: read-out: relative current in 1PBC (avr); for remaining activity at 10 µM: 1PBC conc 10; for remaining activity at 30 µM: 1PBC conc 30
Method: HEK293T cells (ATCC CRL-1573) were maintained in Dulbecco’s modified Eagle’s medium (DMEM; Sigma-Aldrich) supplemented with 10 U ml^−1 penicillin, 0.1 mg ml^−1 streptomycin (Sigma-Aldrich), 2 mM L-glutamine (Sigma-Aldrich), and 10% FBS (Sigma-Aldrich) in a humidified atmosphere containing 5% CO2 at 37 °C. HEK293S GnTI^− cells (ATCC CRL-3022) were maintained in HyClone HyCell TransFx-H medium (GE Healthcare) supplemented with 10 U ml^−1 penicillin, 0.1 mg ml^−1 streptomycin, 4 mM L-glutamine, 0.15% poloxamer 188 (Sigma-Aldrich), and 1% FBS in an atmosphere containing 5% CO2 at 185 rpm at 37 °C. The ac splice variant of mouse TMEM16A (UniProt ID: Q8BHY3), mouse TMEM16B (UniProt ID: Q8CFW1), or mouse TMEM16F (UniProt ID: Q6P9J9) bearing a 3C cleavage site, a Venus YFP, a Myc tag, and a Streptavidin-binding peptide (SBP) downstream of the open reading frame in a modified pcDNA3.1 vector (Invitrogen) were used as described previously[21],[31]. Mutations were introduced using a modified QuikChange method[58] and were verified by sequencing.
HEK293T cells were transfected with 3–4 μg DNA per 6 cm Petri dish using the calcium phosphate co-precipitation method and were used within 24–96 h after transfection. Recordings were performed on inside-out patches excised from HEK293T cells expressing the construct of interest. Patch pipettes were pulled from borosilicate glass capillaries (O.D. 1.5 mm, I.D. 0.86 mm, Sutter Instrument) and were fire-polished with a microforge (Narishige) before use. Pipette resistance was typically 3–8 MΩ when filled with the recording solutions detailed below. Seal resistance was typically 4 GΩ or higher. Voltage-clamp recordings were made using Axopatch 200B, Digidata 1550, and Clampex 10.7 (Molecular Devices). Analog signals were filtered with the in-built 4-pole Bessel filter at 10 kHz and were digitized at 20 kHz. Solution exchange was achieved using a gravity-fed system through a theta glass pipette mounted on an ultra-fast piezo-driven stepper (Siskiyou). […] All recordings were performed at 20 °C.
A symmetrical ionic condition was used throughout. Stock solution with Ca^2+-EGTA contained 150 mM NaCl, 5.99 mM Ca(OH)2, 5 mM EGTA, and 10 mM HEPES at pH 7.40. Stock solution with EGTA contained 150 mM NaCl, 5 mM EGTA, and 10 mM HEPES at pH 7.40. Free Ca^2+ concentrations were adjusted by mixing the stock solutions at the required ratios calculated using the WEBMAXC program (http://web.stanford.edu/~cpatton/webmaxcS.htm). Patch pipettes were filled with the stock solution with Ca^2+-EGTA, which has a free Ca^2+ concentration of 1 mM. 1PBC (ChemBridge) stock was reconstituted in anhydrous DMSO (Sigma-Aldrich) at 100 mM and stored at −20 °C. Working solutions with 1PBC were prepared by serial dilution. Unless otherwise stated, experiments were performed at a saturating Ca^2+ concentration as shown in Supplementary Table 1 and the primary data were corrected for current rundown as described previously[21],[25].
Concentration-response relations, obtained from the ratio of the I-V plots before and after the application of the blocker, were fitted to the Hill equation,1 I/Imax=1/1+IC50/[blocker]^h where I/Imax is the normalized current responses, IC50 defines the concentration at which inhibition is at its half-maximum, and h is the Hill coefficient.

N#Cc1c(C(F)(F)F)cc(O)n2c1nc1ccccc12 [1PBC]
IC50 (0 mV, 2 µM Ca2+): 5 µM | remaining activity at 3 µM (0 mV): 62.2% | remaining activity at 10 µM (0 mV): 32.7% | remaining activity at 30 µM (0 mV): 16.1% | normalised current (avr) (1PBC 3, V 0 mV): -0.0008127 | normalised current (avr) (1PBC 3, V 20 mV): 0.0806 | normalised current (avr) (1PBC 3, V 40 mV): 0.1479 | normalised current (avr) (1PBC 3, V 60 mV): 0.2094 | normalised current (avr) (1PBC 3, V 80 mV): 0.2692 | normalised current (avr) (1PBC 3, V 100 mV): 0.3374 | normalised current (avr) (1PBC 3, V 120 mV): 0.4035 | normalised current (avr) (1PBC 3, V 140 mV): 0.5334 | normalised current (avr) (1PBC 3, V -20 mV): -0.0953 | normalised current (avr) (1PBC 3, V -40 mV): -0.2038 | normalised current (avr) (1PBC 3, V -60 mV): -0.3243 | normalised current (avr) (1PBC 3, V -80 mV): -0.4624 | normalised current (avr) (1PBC 3, V -100 mV): -0.5959 | normalised current (avr) (1PBC 3, V -120 mV): -0.7447 | normalised current (avr) (1PBC 3, V -140 mV): -0.8933 | normalised current (avr) (1PBC 10, V 0 mV): -0.0004268 | normalised current (avr) (1PBC 10, V 20 mV): 0.04176 | normalised current (avr) (1PBC 10, V 40 mV): 0.07281 | normalised current (avr) (1PBC 10, V 60 mV): 0.101 | normalised current (avr) (1PBC 10, V 80 mV): 0.1339 | normalised current (avr) (1PBC 10, V 100 mV): 0.1691 | normalised current (avr) (1PBC 10, V 120 mV): 0.2139 | normalised current (avr) (1PBC 10, V 140 mV): 0.279 | normalised current (avr) (1PBC 10, V -20 mV): -0.05063 | normalised current (avr) (1PBC 10, V -40 mV): -0.1149 | normalised current (avr) (1PBC 10, V -60 mV): -0.2039 | normalised current (avr) (1PBC 10, V -80 mV): -0.3102 | normalised current (avr) (1PBC 10, V -100 mV): -0.4329 | normalised current (avr) (1PBC 10, V -120 mV): -0.5455 | normalised current (avr) (1PBC 10, V -140 mV): -0.6513 | normalised current (avr) (1PBC 30, V 0 mV): -0.0002099 | normalised current (avr) (1PBC 30, V 20 mV): 0.02319 | normalised current (avr) (1PBC 30, V 40 mV): 0.04085 | normalised current (avr) (1PBC 30, V 60 mV): 0.05628 | normalised current (avr) (1PBC 30, V 80 mV): 0.08124 | normalised current (avr) (1PBC 30, V 100 mV): 0.1064 | normalised current (avr) (1PBC 30, V 120 mV): 0.1384 | normalised current (avr) (1PBC 30, V 140 mV): 0.17 | normalised current (avr) (1PBC 30, V -20 mV): -0.02219 | normalised current (avr) (1PBC 30, V -40 mV): -0.05555 | normalised current (avr) (1PBC 30, V -60 mV): -0.09343 | normalised current (avr) (1PBC 30, V -80 mV): -0.1537 | normalised current (avr) (1PBC 30, V -100 mV): -0.2141 | normalised current (avr) (1PBC 30, V -120 mV): -0.2888 | normalised current (avr) (1PBC 30, V -140 mV): -0.3717 | IC50 (20 mV, 2 µM Ca2+): 4.35 µM | remaining activity at 3 µM (20 mV): 57.7% | remaining activity at 10 µM (20 mV): 29.9% | remaining activity at 30 µM (20 mV): 16.6% | IC50 (40 mV, 2 µM Ca2+): 3.57 µM | remaining activity at 3 µM (40 mV): 52.9% | remaining activity at 10 µM (40 mV): 26.1% | remaining activity at 30 µM (40 mV): 14.6% | IC50 (60 mV, 2 µM Ca2+): 3.16 µM | remaining activity at 3 µM (60 mV): 49.9% | remaining activity at 10 µM (60 mV): 24.1% | remaining activity at 30 µM (60 mV): 13.4% | log-fold IC50 (change of mutant vs WT) (80 mV): 0.1976 | IC50 (80 mV, 2 µM Ca2+): 3.04 µM | remaining activity at 3 µM (80 mV): 48.1% | remaining activity at 10 µM (80 mV): 23.9% | remaining activity at 30 µM (80 mV): 14.5% | IC50 (100 mV, 2 µM Ca2+): 3.06 µM | remaining activity at 3 µM (100 mV): 48% | remaining activity at 10 µM (100 mV): 24.1% | remaining activity at 30 µM (100 mV): 15.1% | IC50 (120 mV, 2 µM Ca2+): 3.13 µM | remaining activity at 3 µM (120 mV): 47.7% | remaining activity at 10 µM (120 mV): 25.3% | remaining activity at 30 µM (120 mV): 16.4% | IC50 (140 mV, 2 µM Ca2+): 3.81 µM | remaining activity at 3 µM (140 mV): 53.3% | remaining activity at 10 µM (140 mV): 27.9% | remaining activity at 30 µM (140 mV): 17% | IC50 (-20 mV, 2 µM Ca2+): 5.71 µM | remaining activity at 3 µM (-20 mV): 66.7% | remaining activity at 10 µM (-20 mV): 35.5% | remaining activity at 30 µM (-20 mV): 15.5% | IC50 (-40 mV, 2 µM Ca2+): 7.02 µM | remaining activity at 3 µM (-40 mV): 71.1% | remaining activity at 10 µM (-40 mV): 40.1% | remaining activity at 30 µM (-40 mV): 19.4% | IC50 (-60 mV, 2 µM Ca2+): 8.86 µM | remaining activity at 3 µM (-60 mV): 75.3% | remaining activity at 10 µM (-60 mV): 47.3% | remaining activity at 30 µM (-60 mV): 21.7% | IC50 (-80 mV, 2 µM Ca2+): 11.2 µM | remaining activity at 3 µM (-80 mV): 79.4% | remaining activity at 10 µM (-80 mV): 53.2% | remaining activity at 30 µM (-80 mV): 26.4% | IC50 (-100 mV, 2 µM Ca2+): 13.5 µM | remaining activity at 3 µM (-100 mV): 81.5% | remaining activity at 10 µM (-100 mV): 59.2% | remaining activity at 30 µM (-100 mV): 29.3% | IC50 (-120 mV, 2 µM Ca2+): 15.9 µM | remaining activity at 3 µM (-120 mV): 85.1% | remaining activity at 10 µM (-120 mV): 62.4% | remaining activity at 30 µM (-120 mV): 33% | IC50 (-140 mV, 2 µM Ca2+): 18 µM | remaining activity at 3 µM (-140 mV): 87.9% | remaining activity at 10 µM (-140 mV): 64.1% | remaining activity at 30 µM (-140 mV): 36.6% | IC50 (Y598A, V 0 mV): 5 µM | IC50 (Y598A, V 20 mV): 4.35 µM | IC50 (Y598A, V 40 mV): 3.57 µM | IC50 (Y598A, V 60 mV): 3.16 µM | IC50 (Y598A, V 80 mV): 3.04 µM | IC50 (Y598A, V 100 mV): 3.06 µM | IC50 (Y598A, V 120 mV): 3.13 µM | IC50 (Y598A, V 140 mV): 3.81 µM | IC50 (Y598A, V -20 mV): 5.71 µM | IC50 (Y598A, V -40 mV): 7.02 µM | IC50 (Y598A, V -60 mV): 8.86 µM | IC50 (Y598A, V -80 mV): 11.2 µM | IC50 (Y598A, V -100 mV): 13.5 µM | IC50 (Y598A, V -120 mV): 15.9 µM | IC50 (Y598A, V -140 mV): 18 µM
